Measurements: paper PMC3261798, “Design, Synthesis, and Biological Evaluation of PKD Inhibitors” (Pharmaceutics, 2011)
Values joined by “and” are separate entries in the source; they are usually repeats but may differ in a detail not shown here. Equal values may be shown once.

Key:
PKD1 [1] = target: T1, PKD1 (Homo sapiens, UniProt Q15139); experiment: % PKD1 activity at 1 μM (single concentration; assay format not stated); assay type: biochemical; conditions: compound at 1 μM
T1 sequence (Q15139 1-912): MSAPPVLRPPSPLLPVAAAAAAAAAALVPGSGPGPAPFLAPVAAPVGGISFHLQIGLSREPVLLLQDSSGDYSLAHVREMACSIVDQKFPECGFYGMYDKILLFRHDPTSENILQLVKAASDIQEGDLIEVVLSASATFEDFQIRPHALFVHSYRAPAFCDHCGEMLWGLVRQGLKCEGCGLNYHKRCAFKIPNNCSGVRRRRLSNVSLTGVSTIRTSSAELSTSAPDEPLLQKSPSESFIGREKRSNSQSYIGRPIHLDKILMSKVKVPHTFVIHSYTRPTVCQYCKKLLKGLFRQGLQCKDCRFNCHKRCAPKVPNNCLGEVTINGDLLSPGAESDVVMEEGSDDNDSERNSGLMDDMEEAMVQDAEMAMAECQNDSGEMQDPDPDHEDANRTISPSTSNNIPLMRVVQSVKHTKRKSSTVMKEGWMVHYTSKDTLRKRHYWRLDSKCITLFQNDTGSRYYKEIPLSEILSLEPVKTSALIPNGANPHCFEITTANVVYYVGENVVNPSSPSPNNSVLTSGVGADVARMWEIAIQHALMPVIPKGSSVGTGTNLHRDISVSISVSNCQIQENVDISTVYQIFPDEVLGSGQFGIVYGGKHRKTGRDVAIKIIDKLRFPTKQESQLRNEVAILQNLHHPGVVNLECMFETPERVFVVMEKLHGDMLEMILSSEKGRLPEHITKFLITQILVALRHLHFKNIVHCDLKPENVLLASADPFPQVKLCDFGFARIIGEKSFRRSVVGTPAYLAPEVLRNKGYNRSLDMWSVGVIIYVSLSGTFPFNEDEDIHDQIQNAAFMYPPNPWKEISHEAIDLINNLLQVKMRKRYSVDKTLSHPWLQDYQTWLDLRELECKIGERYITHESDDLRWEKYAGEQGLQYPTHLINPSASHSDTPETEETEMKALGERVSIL

PKD1 [2] = target: T1, PKD1; experiment: In vitro radiometric PKD kinase activity assay; assay type: biochemical; parameters: purchased Biomol International
Protocol: In vitro radiometric PKD kinase assays were conducted as previously described. Briefly, 50 ng recombinant human PKD1 (Biomol International, Plymouth Meeting, PA, USA) was incubated at 30 °C for 10 min with a reaction mixture containing 2.5 μg syntide-2 (Sigma), 70 μM ATP, and 1 μCi γ-^32 P-ATP (PerkinElmer, Boston, MA, USA) in kinase buffer (50 mM Tris-HCl pH 7.5, […], and 10 mM […]). 25 μL of the reaction mixture was then spotted on Whatman P81 filter paper (Whatman Inc., Clifton, NJ, USA), and filter papers were washed three times with 0.5% phosphoric acid, dried, then counted using a Beckman LS6500 multi-purpose scintillation counter.

PKD1 [3] = target: T1, PKD1; experiment: IMAP-based PKD Fluorescence Polarization (FP) assay, automated HTS format; assay type: biochemical; conditions: mean ± SEM, n = number of independent experiments
Protocol: An automated, HTS formatted IMAP-based PKD Fluorescence Polarization (FP) assay was used to assess the specificity of the PKD analogs as previously described. […] Kinase reactions were incubated for 90 min at room temperature and stopped by the addition of IMAP binding reagent. Assay plates were then incubated for 2 h and IMAP-based FP data were captured on a Molecular Devices Spectra-Max M5 (Sunnyvale, CA, USA).

PKD1 [4] = target: T1, PKD1; experiment: Cellular PKD1 inhibition: densitometry of Western blots for PKD1 autophosphorylation at S916 in PMA-stimulated LNCaP cells; assay type: cell-based; conditions: PKD1 autophosphorylation at S916 in LNCaP cells; mean ± SEM
Protocol: Inhibition of PKD 1 in cells was determined by densitometry analysis of Western blotting data for PKD1 autophosphorylation at Ser^916 in LNCaP cells as previously described. LNCaP cells were pre-treated with PKD inhibitors for 45 min at various concentrations, and then stimulated with 10 nM phorbol 12-myristate 13-acetate (PMA) for 20 min. Cells were then collected and lysed in lysis buffer containing 200 mM Tris-HCl, pH 7.4, 100 μM 4-(2-aminoethyl) benzenesulfonyl fluoride, 1 mM EGTA, and 1% Triton X-100. Cell lysates were probed by Western blot analysis using primary antibodies targeting p-S916-PKD1 (Millipore), PKD1 (Cell Signaling Technology), or GAPDH. Densitometry analysis of visualized bands was used to determine the cellular IC50 values for PKD1 inhibition.

[5] = mean ± SEM, n = number of independent experiments, read-out: IC50 Radiometric PKD1

| melting point | remaining activity at 1 µM (PKD1 [1]) [%] | IC50 (PKD1 [2]; [5]) [nM] | IC50 (PKD1 [3]) [µM] | IC50 (PKD1 [4]) | IC50 (PKD1 [2]; in vitro, read-out: PKD1 IC50) [nM] | IC50 Radiometric PKD1 (PKD1 [2]; mean ± SEM, n = number of independent experiments) | Structure (SMILES) |
| --- | --- | --- | --- | --- | --- | --- | --- |
| 269 to 272 °C (dec.) | 99 ± 11 |  |  |  |  |  | O=C1NCCSc2c1sc1c(O)cccc21 [kb-NB184-40, 3,4-Dihydro-7-hydroxy-[1]benzothieno[2,3-f]-1,4-thiazepin-5(2H)-one] |
| 233 to 237 °C | 62 ± 3.5 |  |  |  |  |  | COc1ccc2sc3c(c2c1)OCCCNC3=O [kb-NB184-57, 2,3,4,5-Tetrahydro-10-methoxybenzo[b]thieno[2,3-f]-1,5-oxazocin-6-one] |
| 235 to 238 °C (dec.) | 12.7 ± 0.2 | 48 |  |  |  |  | O=C1NCCSc2c1sc1ccc(O)c(Br)c21 [kb-NB184-52, 3,4-Dihydro-9-hydroxy-10-bromo-[1]benzothieno[2,3-f]-1,4-thiazepin-5(2H)-one] |
| 261 to 263 °C |  | 2390 | 2.4 ± 0.14 |  |  |  | COc1ccc2oc3c(c2c1)CCCNC3=O [kb-NB77-56, 7-Methoxy-2,3,4,5-tetrahydro-[1]benzoxolo[2,3-c]azepin-1-one] |
| 255 to 257 °C |  | 1580 | 2.4 ± 0.3 |  |  |  | C=CCc1c(O)ccc2oc3c(c12)CCCNC3=O [kb-NB96-02, 6-Allyl-7-hydroxy-2,3,4,5-tetrahydro-[1]benzoxolo[2,3-c]azepin-1-one] |
| 284 to 287 °C | 50.4 ± 2.3 | 1080 |  |  |  |  | COc1ccc2c(c1)c1c([s+]2[O-])C(=O)NCCS1 (stereo not drawn) [kb-NB184-25, 3,4-Dihydro-9-methoxy-6-oxide-[1]benzothieno[2,3-f]-1,4-thiazepin-5(2H)-one] |
| 144 to 145 °C | 78.3 | 39600 |  |  |  |  | c1ccc(COc2ccc3sc4c(c3c2)SCCNC4)cc1 [kb-NB165-81, 2,3,4,5-Tetrahydro-9-benzyloxy-[1]benzothieno[2,3-f]-1,4-thiazepine] |
| 213 to 215 °C | 98.6 ± 4.1 |  |  |  |  |  | O=C1NCCSc2c1sc1c(OCc3ccccc3)cccc21 [kb-NB184-38, 3,4-Dihydro-7-benzyloxy-[1]benzothieno[2,3-f]-1,4-thiazepin-5(2H)-one] |
| 215 to 217 °C | 97 ± 16 |  |  |  |  |  | COc1ccc2sc3c(c2c1)[S+]([O-])CCNC3=O (stereo not drawn) [kb-NB184-45, 3,4-Dihydro-9-methoxy-1-oxide-[1]benzothieno[2,3-f]-1,4-thiazepin-5(2H)-one] |
| > 300 °C |  | 850 ± 110 | 14.9 ± 1.2 |  |  |  | O=C1NCCC(=O)c2c1oc1ccc(O)cc21 [kb-NB123-63, 7-Hydroxy-3,4-dihydro-[1]benzoxolo[2,3-c]azepine-1,5(2H)-dione] |
| 193 °C (dec.) |  | 80 ± 10 |  | 2200 nM and 2170 nM | 74.9 |  | [N-]=[N+]=Nc1ccc2sc3c(c2c1)SCCNC3=O [mcf292-08, 3,4-Dihydro-9-azido-[1]benzothieno[2,3-f]-1,4-thiazepin-5(2H)-one] |
| 182 to 184 °C (dec.) | 92.4 | 16400 |  |  |  |  | Oc1ccc2sc3c(c2c1)SCCNC3 [kb-NB165-83, 2,3,4,5-Tetrahydro-9-hydroxy-[1]benzothieno[2,3-f]-1,4-thiazepine] |
| 280 to 282 °C |  | 1230 ± 210 | 24.1 ± 0.71 |  |  |  | O=C1NCCC(O)c2c1oc1ccc(O)cc21 (stereo not drawn) [kb-NB123-89, 5,7-Dihydroxy-2,3,4,5-tetrahydro-[1]benzoxolo[2,3-c]azepin-1-one] |
| 234 to 236 °C |  | 1130 | 21.7 ± 0.52 |  |  |  | O=C1NCCC(=NNc2ccccc2)c2c1oc1ccc(O)cc21 [kb-NB142-05, 7-Hydroxy-5-(2-phenylhydrazono)-2,3,4,5-tetrahydro-[1]benzoxolo[2,3-c]azepin-1-one] |
| 116 to 120 °C | 91.3 ± 1.5 |  |  |  |  | not inhibitory | COC(=O)c1sc2ccc(OC)cc2c1NCCCO [kb-NB184-80, Methyl 3-(3-hydroxypropylamino)-5-methoxybenzo[b]thiophene-2-carboxylate] |
| 265 to 268 °C |  | 1410 | 12.6 ± 1.3 |  |  |  | O=C1NCCc2c1oc1ccc(O)cc21 [kb-NB123-23A, 6-Hydroxy-3,4-dihydrobenzoxolo[2,3-c]pyridin-1(2H)-one] |
| 250 to 254 °C | 55.6 | 757 |  |  |  |  | NCCN1CCSc2c(sc3ccc(O)cc23)C1=O [kb-NB165-75, 2,3-Dihydro-4-(2-aminoethyl)-9-hydroxy-[1]benzothieno[2,3-f]-1,4-thiazepin-5(2H)-one] |
| 195 to 200 °C | 83.3 ± 3.8 |  |  |  |  |  | O=C1NCCCOc2c1sc1ccc(OCc3ccccc3)cc21 [kb-NB184-36, 2,3,4,5-Tetrahydro-10-benzyloxybenzo[b]thieno[2,3-f]-1,5-oxazocin-6-one] |
| 244 to 247 °C |  | 1570 ± 200 | 19.4 ± 1.4 |  |  |  | O=C1NCCc2c1[nH]c1ccc(O)cc21 [kb-NB123-59, 2,3,4,9-Tetrahydro-6-hydroxy-1H-pyrido[3,4-b]indol-1-one] |
| 185 to 188 °C | 29.5 | 190 ± 30 |  |  |  |  | COc1ccc2sc3c(c2c1)SCCCNC3=O [kb-NB184-02, 2,3,4,5-Tetrahydro-10-methoxybenzo[b]thieno[2,3-f]-1,5-thiazocin-6-one] |
| 198 to 200 °C |  | 1230 | 2.6 ± 0.2 |  |  |  | C=CCOc1ccc2oc3c(c2c1)CCCNC3=O [kb-NB77-84, 7-Allyloxy-2,3,4,5-tetrahydro-[1]benzoxolo[2,3-c]azepin-1-one] |
| > 300 °C |  | 890 | 1.4 ± 0.1 |  |  |  | O=C1NCCCc2c1oc1ccc(O)c(Cl)c21 [kb-NB77-88, 6-Chloro-7-hydroxy-2,3,4,5-tetrahydro-[1]benzoxolo[2,3-c]azepin-1-one] |
| > 300 °C |  | 240 | 1.3 ± 0.05 |  |  |  | O=C1NCCCc2c1oc1ccc(O)c(F)c21 [kb-NB96-21, 6-Fluoro-7-hydroxy-2,3,4,5-tetrahydro-[1]benzoxolo[2,3-c]azepin-1-one] |
| 198.6 to 199 °C | 74.4 ± 1.1 | 3170 |  |  |  |  | Nc1ccc2sc3c(c2c1)SCCNC3=O [mcf292-03, 3,4-Dihydro-9-amino-[1]benzothieno[2,3-f]-1,4-thiazepin-5(2H)-one] |
| 160 to 163 °C (dec.) | 66.5 ± 6.1 |  |  |  |  |  | O=C1NCCSc2c1[s+]([O-])c1ccc(O)cc21 (stereo not drawn) [kb-NB184-22, 3,4-Dihydro-9-hydroxy-6-oxide-[1]benzothieno[2,3-f]-1,4-thiazepin-5(2H)-one] |
| 198 to 199 °C | 84.3 | 21700 |  |  |  |  | O=C1NCCCSc2c1sc1ccc(OCc3ccccc3)cc21 [kb-NB165-89, 2,3,4,5-Tetrahydro-10-benzyloxybenzo[b]thieno[2,3-f]-1,5-thiazocin-6-one] |
| 220 to 224 °C | 77.5 ± 3.6 |  |  |  |  |  | COc1cccc2c3c(sc12)C(=O)NCCS3 [kb-NB184-44, 3,4-Dihydro-7-methoxy-[1]benzothieno[2,3-f]-1,4-thiazepin-5(2H)-one] |
